Literature values, collected in patent publication US20210379148A1, “REGULATING MUSCLE PHYSIOLOGY AND ENERGY METABOLISM USING CRYM” (University Of Maryland, Baltimore, priority 2020, published 2021).

molecular target: thyroid hormone receptors (TR) α and β; conditions: read-out: KD, binding to thyroid hormone receptors (TR) α and β

| SMILES | Kd [nM] |
| --- | --- |
| N[C@@H](Cc1cc(I)c(Oc2cc(I)c(O)c(I)c2)c(I)c1)C(=O)O [T4] | 2 |

tested on: CRYM mRNA; conditions: not given

| SMILES | expression of CRYM mRNA |
| --- | --- |
| [K+].[K+].[O]=[Cr](=[O])([O-])[O][Cr](=[O])(=[O])[O-] [Potassium Dichromate] | Potassium Dichromate results in increased expression of |
| C[C@]12CCC(=O)C[C@@H]1CC[C@@H]1[C@@H]2CC[C@]2(C)[C@@H](O)CC[C@@H]12 [Dihydrotestosterone] | Dihydrotestosterone results in increased expression of CRYM |

same assay, conditions: Methionine deficiency co-treated with Choline deficiency co-treated with Folic Acid deficiency

| SMILES | expression of CRYM mRNA |
| --- | --- |
| Nc1nc2ncc(CNc3ccc(C(=O)N[C@@H](CCC(=O)O)C(=O)O)cc3)nc2c(=O)[nH]1 [Folic Acid] | treated with Folic Acid deficiency] results in increased |
| CSCC[C@H](N)C(=O)O [Methionine] | treated with Folic Acid deficiency] results in increased |

same assay, conditions: NOG protein co-treated with entinostat, dorsomorphin and 4-(5-benzo(1,3)dioxol-5-yl-4-pyridin-2-yl-1H-imidazol-2-yl)benzamide

| SMILES | expression of CRYM mRNA |
| --- | --- |
| Nc1ccccc1NC(=O)c1ccc(CNC(=O)OCc2cccnc2)cc1 [entinostat] | pyridin-2-yl-1H-imidazol-2-yl)benzamide] results in increased |
| NC(=O)c1ccc(-c2nc(-c3ccccn3)c(-c3ccc4c(c3)OCO4)[nH]2)cc1 [4-(5-benzo(1,3)dioxol-5-yl-4-pyridin-2-yl-1H-imidazol-2-yl)benzamide] | pyridin-2-yl-1H-imidazol-2-yl)benzamide] results in increased |

same assay, conditions: Oxaliplatin co-treated with Topotecan

| SMILES | expression of CRYM mRNA |
| --- | --- |
| O=C1[O][Pt]2([NH][C@@H]3CCCC[C@H]3[NH]2)[O]C1=O [Oxaliplatin] | [Oxaliplatin co-treated with Topotecan] results in increased |

same assay, conditions: chemical alone

| SMILES | expression of CRYM mRNA |
| --- | --- |
| ClC(Cl)(Cl)Cl [Carbon Tetrachloride] | Carbon Tetrachloride results in increased expression of |
| CCCc1cc(=O)[nH]c(=S)[nH]1 [Propylthiouracil] | Propylthiouracil results in increased expression of CRYM |
| Clc1cc2c(cc1Cl)Oc1cc(Cl)c(Cl)cc1O2 [Tetrachlorodibenzodioxin] | Tetrachlorodibenzodioxin results in increased expression of |
| Nc1ccccc1NC(=O)c1ccc(CNC(=O)OCc2cccnc2)cc1 [entinostat] | entinostat results in increased expression of CRYM mRNA |
| CN[C@@H](Cc1c[nH]c2ccccc12)C(=O)O [abrine] | abrine results in increased expression of CRYM mRNA |
| Clc1cnc(Oc2ccc(Oc3ncc(Cl)cc3Cl)cc2)c(Cl)c1 [1,4-bis(2-(3,5-dichloropyridyloxy))benzene] | increased expression of CRYM mRNA |
| O=c1c(O)c(-c2ccc(O)c(O)c2)oc2cc(O)cc(O)c12 [Quercetin] | Quercetin results in increased expression of CRYM mRNA |
| CCCC(CCC)C(=O)O [Valproic Acid] | Valproic Acid results in increased expression of CRYM |
| CC(N)Cc1ccccc1 (stereo not drawn) [Amphetamine] | Amphetamine results in increased expression of CRYM |
| CC1=C(/C=C/C(C)=C/C=C/C(C)=C/C(=O)O)C(C)(C)CCC1 [Tretinoin] | Tretinoin results in increased expression of CRYM mRNA |
| CCCCOC(=O)c1ccccc1C(=O)OCCCC [Dibutyl Phthalate] | Dibutyl Phthalate results in increased expression of CRYM |
| CCCC=O [butyraldehyde] | butyraldehyde results in increased expression of CRYM |
| CCCCC=O [pentanal] | pentanal results in increased expression of CRYM mRNA |
| O=C1[O][Pt]2([NH][C@@H]3CCCC[C@H]3[NH]2)[O]C1=O [Oxaliplatin] | Oxaliplatin results in increased expression of CRYM mRNA |
| C=CC=C [1,3-butadiene] | 1,3-butadiene results in increased expression of CRYM |
| CC1=C(/C=C/C(C)=C/C=C/C(C)=C/C(=O)Nc2ccc(O)cc2)C(C)(C)CCC1 [Fenretinide] | Fenretinide results in increased expression of CRYM mRNA |
| CNC(=O)O[C@@H](CC(C)C)c1nc([C@H]2OC(=O)/C=C/C/C(C)=C/[C@@H](O)[C@@H](C)\C=C(C)/C=C(C)\C=C\[C@@H](O)[C@H](C)[C@H](OC)/C(C)=C/C=C/[C@@H]2C)cs1 [archazolid B] | archazolid B results in increased expression of CRYM mRNA |
| c1ccc2c(c1)ccc1cc3c(ccc4ccccc43)cc12 [1,2,5,6-dibenzanthracene] | 1,2,5,6-dibenzanthracene results in increased expression of |
| Oc1ccc(Cc2ccc(O)cc2)cc1 [bisphenol F] | bisphenol F results in increased expression of CRYM mRNA |
| CCO [Ethanol] | Ethanol results in increased expression of CRYM mRNA |
| CC[C@@]1(O)C(=O)OCc2c1cc1n(c2=O)Cc2cc3c(CN(C)C)c(O)ccc3nc2-1 [Topotecan] | Topotecan results in increased expression of CRYM mRNA |
| c1ccc2c(c1)cc1ccc3cccc4ccc2c1c34 [Benzo(a)pyrene] | Benzo(a)pyrene results in increased expression of CRYM |
| O=S(=O)(c1ccc(O)cc1)c1ccc(O)cc1 [bis(4-hydroxyphenyl)sulfone] | bis(4-hydroxyphenyl)sulfone results in increased expression |
| CCC=O [propionaldehyde] | propionaldehyde results in increased expression of CRYM |

tested on: skeletal muscles (soleus, EDL); conditions: rats, thyrotoxic doses of T3 and T4

| SMILES | effect on fast twitch extensor digitorum longus (EDL) muscles |
| --- | --- |
| N[C@@H](Cc1cc(I)c(Oc2cc(I)c(O)c(I)c2)c(I)c1)C(=O)O [T4] | no effect |
| N[C@@H](Cc1cc(I)c(Oc2ccc(O)c(I)c2)c(I)c1)C(=O)O [T3, triiodothyronine] | no effect |

same assay, conditions: rats, thyrotoxic doses of T3 and T4; without accompanying changes in contractile velocity

| SMILES | effect on slow twitch soleus muscle |
| --- | --- |
| N[C@@H](Cc1cc(I)c(Oc2cc(I)c(O)c(I)c2)c(I)c1)C(=O)O [T4] | shift in slow twitch soleus muscle from slow to faster characteristics |
| N[C@@H](Cc1cc(I)c(Oc2ccc(O)c(I)c2)c(I)c1)C(=O)O [T3, triiodothyronine] | shift in slow twitch soleus muscle from slow to faster characteristics |

tested on: CRYM protein; conditions: chemical alone

| SMILES | expression of CRYM protein |
| --- | --- |
| CN[C@@H](C)Cc1ccccc1 [Methamphetamine] | Methamphetamine results in increased expression of CRYM |
| C[C@@H]1Cc2c(Cl)cc(C(=O)N[C@@H](Cc3ccccc3)C(=O)O)c(O)c2C(=O)O1 [ochratoxin A] | ochratoxin A results in increased expression of CRYM protein |

molecular target: μ-crystallin ketimine reductase (Homo sapiens, UniProt Q14894); conditions: read-out: K1, inhibition of μ-crystallin's activity as a ketimine reductase
Sequence (Q14894 whole entry): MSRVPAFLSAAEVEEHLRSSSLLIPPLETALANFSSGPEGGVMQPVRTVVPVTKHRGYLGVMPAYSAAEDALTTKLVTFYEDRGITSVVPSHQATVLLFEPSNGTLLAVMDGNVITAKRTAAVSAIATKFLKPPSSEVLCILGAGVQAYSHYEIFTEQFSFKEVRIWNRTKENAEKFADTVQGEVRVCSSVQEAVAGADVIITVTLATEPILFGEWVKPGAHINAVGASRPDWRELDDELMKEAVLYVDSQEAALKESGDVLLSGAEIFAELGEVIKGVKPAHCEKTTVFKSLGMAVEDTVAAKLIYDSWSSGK

| SMILES | Ki [nM] |
| --- | --- |
| N[C@@H](Cc1cc(I)c(Oc2cc(I)c(O)c(I)c2)c(I)c1)C(=O)O [T4] | 0.75 |
